In US9650380B2, “Difluoromethylene compound” (SATO PHARMACEUTICAL CO., LTD., priority 2012, dated 2017):

Target: T1, human URAT1 (Homo sapiens, UniProt Q96S37)
T1 construct: Human URAT1 full-length cDNA was introduced to an expression vector pcDNA5/FRT/V5-His TOPO; expressed in transfected cells
T1 sequence (Q96S37 1-553): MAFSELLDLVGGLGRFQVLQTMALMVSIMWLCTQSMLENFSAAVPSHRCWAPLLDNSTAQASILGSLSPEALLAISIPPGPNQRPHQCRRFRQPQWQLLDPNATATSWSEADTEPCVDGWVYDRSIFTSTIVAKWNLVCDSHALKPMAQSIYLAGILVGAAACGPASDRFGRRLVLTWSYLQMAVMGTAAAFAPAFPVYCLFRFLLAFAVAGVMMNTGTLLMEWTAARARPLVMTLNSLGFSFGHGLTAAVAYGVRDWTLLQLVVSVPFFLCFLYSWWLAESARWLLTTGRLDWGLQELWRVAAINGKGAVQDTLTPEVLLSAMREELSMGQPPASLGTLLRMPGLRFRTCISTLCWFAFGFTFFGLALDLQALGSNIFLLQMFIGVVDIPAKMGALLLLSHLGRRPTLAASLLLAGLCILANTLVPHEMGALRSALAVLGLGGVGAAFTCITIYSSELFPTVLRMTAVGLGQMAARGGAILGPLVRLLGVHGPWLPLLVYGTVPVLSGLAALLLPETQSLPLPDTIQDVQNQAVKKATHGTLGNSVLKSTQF
Test: Test for uric acid transport inhibition using human URAT1 expression cells
Format: cell-based
Details: human URAT1 stable expression CHO cells; 14C-labeled uric acid 38 μM final; incorporation 5 minutes at room temperature; 100% window defined with benzbromarone 100 μM; read-out: URAT1 inhibitory activity (IC50)
Procedure: In this Example, it was evaluated whether the Example compound and the Reference example compound mentioned below has the URAT1 inhibitory activity.
Human URAT1 full-length cDNA was introduced to an expression vector pcDNA5/FRT/V5-His TOPO (registered trademark) (Invitrogen Corporation). The obtained expression plasmid was introduced to Chinese hamster ovary cell (hereinafter referred to as the CHO cell) by the liposome method using Lipofectamine LTX (Invitrogen) and cultured in a selection medium including hygromycin, whereby to prepare human URAT1 stable expression cell.
The human URAT1 expression CHO cell were cultured using D-MEM/F-12 (1:1) mixed medium including 10% bovine fatal serum and hygromycin at 37° C. in the presence of 5% CO2. The cells were seeded onto a 96-well plate (Corning Incorporated) at 0.8×10^5 cells/well, and after 24 hours, the test for uric acid transport inhibition below was performed.
The medium was removed by aspiration, and then the cells were washed once with an assay buffer including 125 mM of sodium gluconate, 4.8 mM of potassium gluconate, 1.2 mM of potassium dihydrogen phosphate, 1.2 mM of magnesium sulfate, 1.3 mM of calcium gluconate and 5.6 mM of glucose, 50 μL assay buffer including the test compound in various concentrations was added, and further 50 μL assay buffer including a radioactive ligand (uric acid labeled with ^14C; 38 μM final concentration) was added, and incorporation reaction was performed at room temperature for 5 minutes. Immediately after the completion of the reaction, the reaction mixture was washed twice with 100 μL ice-cold assay buffer, and 100 μL of 0.1N sodium hydroxide was added. The reaction mixture was stirred to lyse the cells, and 4 mL of Hionic-Fluor (Packard BioScience CO.) was added, and then the radioactivity was measured with a liquid scintillation counter (Beckman Coulter, Inc. and Packard BioScience CO).
The radioactivitiy when each concentration of the test compound was added (uric acid incorporation activity, %) was calculated in which the difference of the radioactivity when the test compound was not added (DMSO added) and the radioactivity when a positive control compound, benzbromarone (a known URAT1 inhibitor) was added in 100 μM, was taken as 100%, and the concentration of the test compound when the uric acid incorporation activity was inhibited to 50% (IC50) was obtained.

Row | IC50 [nM] | Compound
1 | 26 | Cc1cccc(Cl)c1Cn1nc(C)c2ccc(C(F)(F)C(=O)O)cc21 [Example 3, [1-(2-chloro-6-methylbenzyl)-3-methyl-1H-indazol-6-yl]difluoroacetic acid]
2 | 17 | Cc1nn(Cc2c(Cl)cccc2C2CC2)c2cc(C(F)(F)C(=O)O)ccc12 [Example 12, [1-(2-chloro-6-cyclopropylbenzyl)-3-methyl-1H-indazol-6-yl]difluoroacetic acid]
3 | 15 | O=C(O)C(F)(F)c1ccc2c(Cl)nn(Cc3c(Cl)cccc3Cl)c2c1 [Example 34, [3-chloro-1-(2,6-dichlorobenzyl)-1H-indazol-6-yl]difluoroacetic acid]
4 | 107 | O=C(O)C(F)(F)c1ccc2c(C(F)(F)F)nn(Cc3c(Cl)cccc3Cl)c2c1 [Example 36, [1-(2,6-dichlorobenzyl)-3-trifluoromethyl-1H-indazol-6-yl]difluoroacetic acid]
5 | 34 | Cc1nn(Cc2c(Cl)cccc2C2CC2)c2cc(C(F)(F)C(=O)O)cnc12 [Example 38, [1-(2-chloro-6-cyclopropylbenzyl)-3-methyl-1H-pyrazolo[4,3-b]pyridin-6-yl]difluoroacetic acid]
6 | 243 | CCc1nn(Cc2c(F)cccc2C2CC2)c2cc(C(F)(F)C(=O)O)cnc12 [Example 46, [1-(2-cyclopropyl-6-fluorobenzyl)-3-ethyl-1H-pyrazolo[4,3-b]pyridin-6-yl]difluoroacetic acid]
7 | 38 | Cc1cn(Cc2c(Cl)cccc2Cl)c2cc(C(F)(F)C(=O)O)ccc12 [Example 49, [1-(2,6-dichlorobenzyl)-3-methyl-1H-indol-6-yl]difluoroacetic acid]
8 | 7 | Cc1nn(Cc2c(Cl)cccc2Cl)c2cc(C(F)(F)c3nnn[nH]3)ccc12 [Example 50, 1-(2,6-dichlorobenzyl)-6-[difluoro(1H-tetrazol-5-yl)methyl]-3-methyl-1H-indazole]
9 | 6 | Cc1cccc(C#N)c1Cn1nc(C)c2ccc(C(F)(F)c3nnn[nH]3)cc21 [Example 71, 2-{6-[difluoro(1H-tetrazol-5-yl)methyl]-3-methyl-1H-indazol-1-ylmethyl}-3-methylbenzonitrile]
10 | 34 | Cc1nn(Cc2ccc(C#N)cc2)c2cc(C(F)(F)c3nnn[nH]3)ccc12 [Example 88, 4-{6-[difluoro(1H-tetrazol-5-yl)methyl]-3-methyl-1H-indazol-1-ylmethyl}benzonitrile]
11 | 21 | Cc1nn(Cc2c(C#N)ccnc2Cl)c2cc(C(F)(F)c3nnn[nH]3)ccc12 [Example 92, 2-chloro-3-{6-[difluoro(1H-tetrazol-5-yl)methyl]-3-methyl-1H-indazol-1-ylmethyl}isonicotinonitrile]
12 | 125 | Cc1nn(Cc2cccc3ccncc23)c2cc(C(F)(F)c3nnn[nH]3)ccc12 [Example 94, 8-{6-[difluoro(1H-tetrazol-5-yl)methyl]-3-methyl-1H-indazol-1-ylmethyl}isoquinoline]
13 | 9 | Cc1nn(Cc2c(F)cccc2Cl)c2cc(C(F)(F)c3n[nH]c(=O)o3)ccc12 [Example 101, 5-{[1-(2-chloro-6-fluorobenzyl)-3-methyl-1H-indazol-6-yl]difluoromethyl}-1,3,4-oxadiazol-2(3H)-one]
14 | 142 | Cc1nn(S(=O)(=O)c2c(Cl)cccc2Cl)c2cc(C(F)(F)c3nnn[nH]3)ccc12 [Example 102, 1-(2,6-dichlorobenzenesulfonyl)-6-[difluoro(1H-tetrazol-5-yl)methyl]-3-methyl-1H-indazole]
15 | 12 | Cc1cccc(CC#N)c1Cn1nc(C)c2ccc(C(F)(F)c3nnn[nH]3)cc21 [Example 107, (2-{6-[difluoro(1H-tetrazol-5-yl)methyl]-3-methyl-1H-indazol-1-ylmethyl}-3-methylphenyl)acetonitrile]
16 | 13 | Cc1cccc(C#N)c1Cn1nc(C)c2ccc(C(F)(F)c3nnn[nH]3)nc21 [Example 109, 2-{6-[difluoro(1H-tetrazol-5-yl)methyl]-3-methyl-1H-pyrazolo[3,4-b]pyridin-1-ylmethyl}-3-methylbenzonitrile]

Row | IC50 [nM] | Compound
17 | 53 | Cc1nn(Cc2c(Cl)cccc2C2CC2)c2cc(C(=O)O)cnc12 [Reference Example 2, 1-(2-chloro-6-cyclopropylbenzyl)-3-methyl-1H-pyrazolo[4,3-b]pyridine-6-carboxylic acid, reference compound]
18 | 32 | O=C(O)c1cnc2c(Cl)nn(Cc3c(Cl)cccc3C3CC3)c2c1 [Reference Example 3, 3-chloro-1-(2-chloro-6-cyclopropylbenzyl)-1H-pyrazolo[4,3-b]pyridine-6-carboxylic acid, reference compound]
19 | 13 | O=C(O)c1cnc2c(C(F)(F)F)nn(Cc3c(Cl)cccc3C3CC3)c2c1 [Reference Example 5, 1-(2-chloro-6-cyclopropylbenzyl)-3-trifluoromethyl-1H-pyrazolo[4,3-b]pyridine-6-carboxylic acid, reference compound]
20 | 24 | Cc1nn(Cc2c(Cl)cccc2C2CC2)c2cc(CCC(=O)O)ccc12 [Reference Example 8, 3-[1-(2-chloro-6-cyclopropylbenzyl)-3-methyl-1H-indazol-6-yl]propionic acid, reference compound]
21 | 78 | Cc1nn(Cc2c(Cl)cccc2Cl)c2cc(C(O)c3nnn[nH]3)ccc12 (stereo not shown) [Reference Example 9, [1-(2,6-dichlorobenzyl)-3-methyl-1H-indazol-6-yl](1H-tetrazol-5-yl)methanol, reference compound]
22 | 15 | O=C(O)Cc1ccc2c(C(F)(F)F)nn(Cc3c(Cl)cccc3Cl)c2c1 [Reference Example 11, [1-(2,6-dichlorobenzyl)-3-trifluoromethyl-1H-indazol-6-yl]acetic acid, reference compound]
23 | 16 | O=C(O)Cc1ccc2c(Cl)nn(Cc3c(Cl)cccc3Cl)c2c1 [Reference Example 12, [3-chloro-1-(2,6-dichlorobenzyl)-1H-indazol-6-yl]acetic acid, reference compound]
24 | 40 | Cc1nn(Cc2c(F)cccc2Cl)c2cc(C(F)(F)C(=O)O)ccc12 [example 9, [1-(2-chloro-6-fluorobenzyl)-3-methyl-1H-indazol-6-yl]difluoroacetic acid]
25 | 48 | Cc1nn(Cc2cccc(Cl)c2Cl)c2cc(C(F)(F)C(=O)O)ccc12 [example 14, [1-(2,3-dichlorobenzyl)-3-methyl-1H-indazol-6-yl]difluoroacetic acid]
26 | 52 | Cc1nn(Cc2c(F)cccc2C(F)(F)F)c2cc(C(F)(F)C(=O)O)ccc12 [example 22, difluoro[1-(2-fluoro-6-trifluoromethylbenzyl)-3-methyl-1H-indazol-6-yl]acetic acid]
27 | 26 | Cc1cccc(C#N)c1Cn1nc(C)c2ccc(C(F)(F)C(=O)O)cc21 [example 24, [1-(2-cyano-6-methylbenzyl)-3-methyl-1H-indazol-6-yl]difluoroacetic acid]
28 | 23 | Cc1nn(Cc2c(C#N)cccc2C2CC2)c2cc(C(F)(F)C(=O)O)ccc12 [example 32, [1-(2-cyano-6-cyclopropylbenzyl)-3-methyl-1H-indazol-6-yl]difluoroacetic acid]
29 | 390 | Cc1nn(Cc2c(C#N)cccc2CO)c2cc(C(F)(F)C(=O)O)ccc12 [example 53, [1-(2-cyano-6-hydroxymethylbenzyl)-3-methyl-1H-indazol-6-yl]difluoroacetic acid]
30 | 46 | Cc1nn(Cc2c(Cl)cccc2C(N)=O)c2cc(C(F)(F)c3nnn[nH]3)ccc12 [example 67, 3-chloro-2-{6-[difluoro(1H-tetrazol-5-yl)methyl]-3-methyl-1H-indazol-1-ylmethyl}benzamide]
31 | 30 | Cc1nn(Cc2c(C#N)cccc2CO)c2cc(C(F)(F)c3nnn[nH]3)ccc12 [example 104]
